Molecular target: T1, Progesterone receptor (Bos taurus, UniProt Q690N0)
T1 sequence (Q690N0 whole entry): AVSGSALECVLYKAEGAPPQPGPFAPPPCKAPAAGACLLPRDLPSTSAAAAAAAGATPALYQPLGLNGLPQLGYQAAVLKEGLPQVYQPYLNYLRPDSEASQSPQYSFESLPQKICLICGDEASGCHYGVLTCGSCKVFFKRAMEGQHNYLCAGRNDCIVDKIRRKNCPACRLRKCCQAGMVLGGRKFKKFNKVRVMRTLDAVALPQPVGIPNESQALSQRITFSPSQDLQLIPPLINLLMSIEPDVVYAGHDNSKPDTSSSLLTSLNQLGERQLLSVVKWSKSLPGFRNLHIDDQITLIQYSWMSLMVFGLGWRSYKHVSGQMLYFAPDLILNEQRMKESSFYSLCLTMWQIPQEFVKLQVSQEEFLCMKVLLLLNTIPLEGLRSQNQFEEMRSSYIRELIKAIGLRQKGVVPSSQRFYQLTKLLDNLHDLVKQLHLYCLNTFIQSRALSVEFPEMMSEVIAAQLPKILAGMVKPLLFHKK
Assay: DRUGMATRIX: Progesterone radioligand binding (ligand: [3H] R-5020)
Format: tissue-based, Uterus
Conditions: Not Active = under 50% inhibition at 10 µM

SMILES	IC50
Nc1nc2c(ncn2COC(CO)CO)c(=O)[nH]1 [GANCICLOVIR]	Not Active
CC1=Nc2ccc(Cl)cc2S(=O)(=O)N1 [DIAZOXIDE]	Not Active
CC(C)(Oc1ccc(CCNC(=O)c2ccc(Cl)cc2)cc1)C(=O)O [BEZAFIBRATE]	Not Active
CC(C)n1c(/C=C/C(O)CC(O)CC(=O)O)c(-c2ccc(F)cc2)c2ccccc21 (stereo not given) [FLUVASTATIN]	Not Active
CCCCOC(=O)c1ccc(N)cc1 [BUTAMBEN]	Not Active

Molecular target: Matrix metalloproteinase-9 (Homo sapiens, UniProt P14780);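 note: inhibition of isolated MMP-9 enzyme activity toward a synthetic peptide substrate, from the DrugMatrix protease screening panel; in other assays of this panel Not Active means under 50% inhibition at 10 µM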
Sequence (P14780 whole entry): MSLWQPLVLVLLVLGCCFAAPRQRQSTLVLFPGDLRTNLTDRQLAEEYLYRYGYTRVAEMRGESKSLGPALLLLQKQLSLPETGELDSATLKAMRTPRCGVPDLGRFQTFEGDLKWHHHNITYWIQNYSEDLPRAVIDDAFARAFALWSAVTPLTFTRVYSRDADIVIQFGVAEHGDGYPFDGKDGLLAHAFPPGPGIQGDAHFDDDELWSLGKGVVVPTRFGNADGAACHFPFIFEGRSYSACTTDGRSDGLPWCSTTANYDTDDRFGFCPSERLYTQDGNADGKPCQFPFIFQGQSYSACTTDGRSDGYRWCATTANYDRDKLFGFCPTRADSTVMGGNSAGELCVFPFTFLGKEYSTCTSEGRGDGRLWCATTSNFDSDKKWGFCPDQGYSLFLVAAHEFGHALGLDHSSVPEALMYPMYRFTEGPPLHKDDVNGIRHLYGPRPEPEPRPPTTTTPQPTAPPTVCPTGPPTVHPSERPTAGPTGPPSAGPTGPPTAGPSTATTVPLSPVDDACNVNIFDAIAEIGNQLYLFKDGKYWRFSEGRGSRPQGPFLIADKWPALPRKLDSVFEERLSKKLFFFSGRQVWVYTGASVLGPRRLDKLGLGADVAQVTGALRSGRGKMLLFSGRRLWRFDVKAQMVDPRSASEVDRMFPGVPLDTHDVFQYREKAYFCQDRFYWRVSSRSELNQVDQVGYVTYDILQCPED
Format: cell-based
Conditions: not given

SMILES	IC50
Nc1nc2c(ncn2COC(CO)CO)c(=O)[nH]1 [GANCICLOVIR]	Not Active
CC1=Nc2ccc(Cl)cc2S(=O)(=O)N1 [DIAZOXIDE]	Not Active
CC(C)(Oc1ccc(CCNC(=O)c2ccc(Cl)cc2)cc1)C(=O)O [BEZAFIBRATE]	Not Active
CC(C)n1c(/C=C/C(O)CC(O)CC(=O)O)c(-c2ccc(F)cc2)c2ccccc21 (stereo not given) [FLUVASTATIN]	Not Active
CCCCOC(=O)c1ccc(N)cc1 [BUTAMBEN]	Not Active

Test system: not listed separately
Assay: DRUGMATRIX: Serotonin (5-Hydroxytryptamine) 5-HT3 radioligand binding (ligand: [3H] GR-65630)
Format: cell membranes, Membrane
Conditions: hek293; Not Active = under 50% inhibition at 10 µM

SMILES	IC50	Ki
Nc1nc2c(ncn2COC(CO)CO)c(=O)[nH]1 [GANCICLOVIR]	Not Active	Not Active
CC1=Nc2ccc(Cl)cc2S(=O)(=O)N1 [DIAZOXIDE]	Not Active	Not Active
CC(C)(Oc1ccc(CCNC(=O)c2ccc(Cl)cc2)cc1)C(=O)O [BEZAFIBRATE]	Not Active	Not Active
CC(C)n1c(/C=C/C(O)CC(O)CC(=O)O)c(-c2ccc(F)cc2)c2ccccc21 (stereo not given) [FLUVASTATIN]	Not Active	Not Active
CCCCOC(=O)c1ccc(N)cc1 [BUTAMBEN]	Not Active	Not Active

Molecular target: Nitric oxide synthase 1 (Rattus norvegicus, UniProt P29476); note: in other assays of this panel Not Active means under 50% inhibition at 10 µM
Sequence (P29476 whole entry): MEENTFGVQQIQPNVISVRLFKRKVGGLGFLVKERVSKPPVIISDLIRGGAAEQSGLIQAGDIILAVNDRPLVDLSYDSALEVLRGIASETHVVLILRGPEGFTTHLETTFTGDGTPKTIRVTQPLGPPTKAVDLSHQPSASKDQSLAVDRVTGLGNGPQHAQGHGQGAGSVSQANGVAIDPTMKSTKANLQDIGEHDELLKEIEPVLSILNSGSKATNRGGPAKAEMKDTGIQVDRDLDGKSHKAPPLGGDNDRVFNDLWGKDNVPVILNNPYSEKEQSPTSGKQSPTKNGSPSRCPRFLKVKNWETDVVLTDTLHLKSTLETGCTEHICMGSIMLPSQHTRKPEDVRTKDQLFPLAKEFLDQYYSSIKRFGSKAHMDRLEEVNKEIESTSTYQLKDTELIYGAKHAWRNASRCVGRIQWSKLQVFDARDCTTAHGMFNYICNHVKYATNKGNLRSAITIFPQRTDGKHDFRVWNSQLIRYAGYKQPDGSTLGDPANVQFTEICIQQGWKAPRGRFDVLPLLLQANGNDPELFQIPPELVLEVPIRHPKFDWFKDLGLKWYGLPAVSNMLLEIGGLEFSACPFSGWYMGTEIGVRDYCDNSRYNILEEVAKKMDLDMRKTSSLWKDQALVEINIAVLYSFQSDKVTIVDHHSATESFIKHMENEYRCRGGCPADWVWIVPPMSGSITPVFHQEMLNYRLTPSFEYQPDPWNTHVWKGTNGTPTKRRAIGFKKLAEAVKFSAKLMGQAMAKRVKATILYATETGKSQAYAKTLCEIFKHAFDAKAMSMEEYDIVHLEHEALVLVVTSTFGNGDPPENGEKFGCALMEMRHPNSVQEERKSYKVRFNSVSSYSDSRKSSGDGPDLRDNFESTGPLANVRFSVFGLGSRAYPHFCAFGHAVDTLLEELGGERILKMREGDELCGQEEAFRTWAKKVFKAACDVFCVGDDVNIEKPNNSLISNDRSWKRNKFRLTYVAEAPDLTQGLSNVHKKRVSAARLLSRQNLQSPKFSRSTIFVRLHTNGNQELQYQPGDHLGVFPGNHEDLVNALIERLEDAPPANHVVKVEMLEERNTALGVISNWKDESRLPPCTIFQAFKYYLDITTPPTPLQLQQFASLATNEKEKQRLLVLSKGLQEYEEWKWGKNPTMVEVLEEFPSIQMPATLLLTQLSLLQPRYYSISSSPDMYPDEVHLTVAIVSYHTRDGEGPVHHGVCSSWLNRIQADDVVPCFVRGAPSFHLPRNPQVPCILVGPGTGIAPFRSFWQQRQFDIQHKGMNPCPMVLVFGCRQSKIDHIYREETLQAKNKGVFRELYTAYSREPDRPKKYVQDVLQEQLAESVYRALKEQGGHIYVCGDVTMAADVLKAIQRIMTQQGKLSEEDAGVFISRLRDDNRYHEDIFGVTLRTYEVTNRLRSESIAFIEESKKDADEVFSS
Format: tissue-based, Cerebellum
Conditions: not given

SMILES	IC50
Nc1nc2c(ncn2COC(CO)CO)c(=O)[nH]1 [GANCICLOVIR]	Not Active
CC1=Nc2ccc(Cl)cc2S(=O)(=O)N1 [DIAZOXIDE]	Not Active
CC(C)(Oc1ccc(CCNC(=O)c2ccc(Cl)cc2)cc1)C(=O)O [BEZAFIBRATE]	Not Active
CC(C)n1c(/C=C/C(O)CC(O)CC(=O)O)c(-c2ccc(F)cc2)c2ccccc21 (stereo not given) [FLUVASTATIN]	Not Active
CCCCOC(=O)c1ccc(N)cc1 [BUTAMBEN]	Not Active

Molecular target: T2, Alpha-1A adrenergic receptor (Rattus norvegicus, UniProt P43140)
T2 sequence (P43140 whole entry): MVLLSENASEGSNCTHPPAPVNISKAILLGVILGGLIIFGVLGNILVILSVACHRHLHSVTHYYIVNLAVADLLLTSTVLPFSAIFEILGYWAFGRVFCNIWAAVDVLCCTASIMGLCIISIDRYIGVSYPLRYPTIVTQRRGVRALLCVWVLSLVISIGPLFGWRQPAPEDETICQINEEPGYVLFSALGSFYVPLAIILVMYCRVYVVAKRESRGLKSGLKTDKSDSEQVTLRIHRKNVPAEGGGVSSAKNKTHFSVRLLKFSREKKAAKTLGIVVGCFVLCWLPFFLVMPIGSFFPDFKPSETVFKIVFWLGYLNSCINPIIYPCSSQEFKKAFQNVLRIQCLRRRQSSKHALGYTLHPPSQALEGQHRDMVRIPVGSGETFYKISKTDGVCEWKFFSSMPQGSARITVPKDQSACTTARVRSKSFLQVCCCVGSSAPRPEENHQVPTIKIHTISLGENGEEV
Assay: DRUGMATRIX: Alpha-1A adrenergic receptor radioligand binding (ligand: prazosin)
Format: cell membranes, Wistar, Submaxillary gland, Membrane
Conditions: Not Active = under 50% inhibition at 10 µM

SMILES	IC50
Nc1nc2c(ncn2COC(CO)CO)c(=O)[nH]1 [GANCICLOVIR]	Not Active
CC1=Nc2ccc(Cl)cc2S(=O)(=O)N1 [DIAZOXIDE]	Not Active
CC(C)(Oc1ccc(CCNC(=O)c2ccc(Cl)cc2)cc1)C(=O)O [BEZAFIBRATE]	Not Active
CC(C)n1c(/C=C/C(O)CC(O)CC(=O)O)c(-c2ccc(F)cc2)c2ccccc21 (stereo not given) [FLUVASTATIN]	Not Active
CCCCOC(=O)c1ccc(N)cc1 [BUTAMBEN]	Not Active

Molecular target: T3, Muscarinic acetylcholine receptor M4 (Homo sapiens, UniProt P08173); note: in other assays of this panel Not Active means under 50% inhibition at 10 µM
T3 sequence (P08173 whole entry): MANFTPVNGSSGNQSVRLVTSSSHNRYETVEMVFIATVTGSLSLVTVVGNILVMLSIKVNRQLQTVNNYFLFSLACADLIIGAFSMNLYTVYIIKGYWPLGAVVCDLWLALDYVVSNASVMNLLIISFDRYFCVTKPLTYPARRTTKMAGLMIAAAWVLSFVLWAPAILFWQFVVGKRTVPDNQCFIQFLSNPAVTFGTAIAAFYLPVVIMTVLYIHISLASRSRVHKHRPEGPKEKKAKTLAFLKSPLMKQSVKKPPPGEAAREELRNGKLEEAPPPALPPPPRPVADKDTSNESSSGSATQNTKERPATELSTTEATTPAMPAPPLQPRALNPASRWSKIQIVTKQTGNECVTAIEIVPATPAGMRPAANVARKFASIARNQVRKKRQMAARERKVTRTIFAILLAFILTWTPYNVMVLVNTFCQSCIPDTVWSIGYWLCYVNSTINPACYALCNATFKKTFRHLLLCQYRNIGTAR
Format: cell membranes, CHO-K1, Membrane
Conditions: cho-k1

SMILES	IC50
Nc1nc2c(ncn2COC(CO)CO)c(=O)[nH]1 [GANCICLOVIR]	Not Active
CC1=Nc2ccc(Cl)cc2S(=O)(=O)N1 [DIAZOXIDE]	Not Active
CC(C)(Oc1ccc(CCNC(=O)c2ccc(Cl)cc2)cc1)C(=O)O [BEZAFIBRATE]	Not Active
CC(C)n1c(/C=C/C(O)CC(O)CC(=O)O)c(-c2ccc(F)cc2)c2ccccc21 (stereo not given) [FLUVASTATIN]	Not Active
CCCCOC(=O)c1ccc(N)cc1 [BUTAMBEN]	Not Active

Molecular target: T4, B2 bradykinin receptor (Homo sapiens, UniProt P30411); note: in other assays of this panel Not Active means under 50% inhibition at 10 µM
T4 sequence (P30411 whole entry): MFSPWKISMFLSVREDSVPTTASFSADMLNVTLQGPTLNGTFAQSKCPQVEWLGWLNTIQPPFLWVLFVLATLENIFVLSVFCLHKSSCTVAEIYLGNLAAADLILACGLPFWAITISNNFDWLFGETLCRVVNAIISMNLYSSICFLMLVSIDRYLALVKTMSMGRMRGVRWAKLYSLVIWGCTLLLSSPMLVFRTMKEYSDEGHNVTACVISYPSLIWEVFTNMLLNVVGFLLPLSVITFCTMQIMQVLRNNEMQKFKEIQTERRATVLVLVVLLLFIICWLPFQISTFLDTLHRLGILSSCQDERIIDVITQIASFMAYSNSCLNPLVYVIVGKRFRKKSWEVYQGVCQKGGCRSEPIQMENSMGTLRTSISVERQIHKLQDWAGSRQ
Format: cell membranes, Membrane
Conditions: chem-1

SMILES	IC50
Nc1nc2c(ncn2COC(CO)CO)c(=O)[nH]1 [GANCICLOVIR]	Not Active
CC1=Nc2ccc(Cl)cc2S(=O)(=O)N1 [DIAZOXIDE]	Not Active
CC(C)(Oc1ccc(CCNC(=O)c2ccc(Cl)cc2)cc1)C(=O)O [BEZAFIBRATE]	Not Active
CC(C)n1c(/C=C/C(O)CC(O)CC(=O)O)c(-c2ccc(F)cc2)c2ccccc21 (stereo not given) [FLUVASTATIN]	Not Active
CCCCOC(=O)c1ccc(N)cc1 [BUTAMBEN]	Not Active

Molecular target: Vascular endothelial growth factor receptor 1 (Homo sapiens, UniProt P17948); note: in other assays of this panel Not Active means under 50% inhibition at 10 µM
Sequence (P17948 whole entry): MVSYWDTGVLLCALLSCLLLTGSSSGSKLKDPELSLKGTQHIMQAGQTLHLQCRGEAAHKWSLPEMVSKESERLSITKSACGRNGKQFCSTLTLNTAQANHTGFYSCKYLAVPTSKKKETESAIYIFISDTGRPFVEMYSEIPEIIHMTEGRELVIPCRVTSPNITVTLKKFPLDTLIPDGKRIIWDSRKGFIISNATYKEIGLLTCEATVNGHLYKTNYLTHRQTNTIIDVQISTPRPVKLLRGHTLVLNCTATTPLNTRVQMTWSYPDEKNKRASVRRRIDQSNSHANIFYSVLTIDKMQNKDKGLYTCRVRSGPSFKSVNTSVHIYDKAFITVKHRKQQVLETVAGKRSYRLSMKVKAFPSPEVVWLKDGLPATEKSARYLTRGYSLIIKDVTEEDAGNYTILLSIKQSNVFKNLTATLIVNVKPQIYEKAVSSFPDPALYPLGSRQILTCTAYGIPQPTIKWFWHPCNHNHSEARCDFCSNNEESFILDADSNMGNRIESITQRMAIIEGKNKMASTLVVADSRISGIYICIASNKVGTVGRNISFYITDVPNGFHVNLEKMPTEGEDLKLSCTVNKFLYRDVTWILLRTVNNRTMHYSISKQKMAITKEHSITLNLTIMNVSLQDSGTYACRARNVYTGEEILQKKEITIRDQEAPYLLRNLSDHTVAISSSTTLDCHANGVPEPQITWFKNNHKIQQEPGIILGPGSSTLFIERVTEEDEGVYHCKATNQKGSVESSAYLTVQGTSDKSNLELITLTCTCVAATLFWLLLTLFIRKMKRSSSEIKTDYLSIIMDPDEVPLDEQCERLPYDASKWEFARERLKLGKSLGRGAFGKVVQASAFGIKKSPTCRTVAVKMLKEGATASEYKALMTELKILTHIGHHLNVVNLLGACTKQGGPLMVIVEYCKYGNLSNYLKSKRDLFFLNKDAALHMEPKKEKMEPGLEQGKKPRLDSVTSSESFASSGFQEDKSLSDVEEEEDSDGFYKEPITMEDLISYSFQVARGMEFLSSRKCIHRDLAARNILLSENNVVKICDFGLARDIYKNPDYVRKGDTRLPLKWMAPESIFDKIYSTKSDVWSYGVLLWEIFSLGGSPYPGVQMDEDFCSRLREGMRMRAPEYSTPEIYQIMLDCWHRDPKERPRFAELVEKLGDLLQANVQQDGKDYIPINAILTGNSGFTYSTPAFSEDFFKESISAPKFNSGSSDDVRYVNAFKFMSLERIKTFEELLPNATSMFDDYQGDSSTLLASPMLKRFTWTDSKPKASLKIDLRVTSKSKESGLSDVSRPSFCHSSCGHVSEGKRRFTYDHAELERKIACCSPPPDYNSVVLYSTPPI
Format: cell-based
Conditions: huvec

SMILES	IC50
Nc1nc2c(ncn2COC(CO)CO)c(=O)[nH]1 [GANCICLOVIR]	Not Active
CC1=Nc2ccc(Cl)cc2S(=O)(=O)N1 [DIAZOXIDE]	Not Active
CC(C)(Oc1ccc(CCNC(=O)c2ccc(Cl)cc2)cc1)C(=O)O [BEZAFIBRATE]	Not Active
CC(C)n1c(/C=C/C(O)CC(O)CC(=O)O)c(-c2ccc(F)cc2)c2ccccc21 (stereo not given) [FLUVASTATIN]	Not Active
CCCCOC(=O)c1ccc(N)cc1 [BUTAMBEN]	Not Active

Molecular target: Delta-type opioid receptor (Homo sapiens, UniProt P41143); note: in other assays of this panel Not Active means under 50% inhibition at 10 µM
Format: cell membranes, HEK293, Membrane
Conditions: hek293

SMILES	IC50
Nc1nc2c(ncn2COC(CO)CO)c(=O)[nH]1 [GANCICLOVIR]	Not Active
CC1=Nc2ccc(Cl)cc2S(=O)(=O)N1 [DIAZOXIDE]	Not Active
CC(C)(Oc1ccc(CCNC(=O)c2ccc(Cl)cc2)cc1)C(=O)O [BEZAFIBRATE]	Not Active
CC(C)n1c(/C=C/C(O)CC(O)CC(=O)O)c(-c2ccc(F)cc2)c2ccccc21 (stereo not given) [FLUVASTATIN]	Not Active
CCCCOC(=O)c1ccc(N)cc1 [BUTAMBEN]	Not Active

Molecular target: Sigma non-opioid intracellular receptor 1 (Homo sapiens, UniProt Q99720)
Sequence (Q99720 whole entry): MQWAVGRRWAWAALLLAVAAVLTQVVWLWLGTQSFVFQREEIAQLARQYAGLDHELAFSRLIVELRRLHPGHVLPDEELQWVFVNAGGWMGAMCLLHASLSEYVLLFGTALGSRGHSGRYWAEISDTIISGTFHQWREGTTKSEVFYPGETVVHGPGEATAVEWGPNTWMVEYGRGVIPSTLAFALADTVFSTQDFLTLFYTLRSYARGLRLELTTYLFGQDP
Assay: DRUGMATRIX: Sigma1 radioligand binding (ligand: [3H] Haloperidol)
Format: cell membranes, Jurkat, Membrane
Conditions: jurkat; Not Active = under 50% inhibition at 10 µM

SMILES	IC50
Nc1nc2c(ncn2COC(CO)CO)c(=O)[nH]1 [GANCICLOVIR]	Not Active
CC1=Nc2ccc(Cl)cc2S(=O)(=O)N1 [DIAZOXIDE]	Not Active
CC(C)(Oc1ccc(CCNC(=O)c2ccc(Cl)cc2)cc1)C(=O)O [BEZAFIBRATE]	Not Active
CC(C)n1c(/C=C/C(O)CC(O)CC(=O)O)c(-c2ccc(F)cc2)c2ccccc21 (stereo not given) [FLUVASTATIN]	Not Active
CCCCOC(=O)c1ccc(N)cc1 [BUTAMBEN]	Not Active

Molecular target: Mitogen-activated protein kinase 14 (Homo sapiens, UniProt Q16539)
Sequence (Q16539 whole entry): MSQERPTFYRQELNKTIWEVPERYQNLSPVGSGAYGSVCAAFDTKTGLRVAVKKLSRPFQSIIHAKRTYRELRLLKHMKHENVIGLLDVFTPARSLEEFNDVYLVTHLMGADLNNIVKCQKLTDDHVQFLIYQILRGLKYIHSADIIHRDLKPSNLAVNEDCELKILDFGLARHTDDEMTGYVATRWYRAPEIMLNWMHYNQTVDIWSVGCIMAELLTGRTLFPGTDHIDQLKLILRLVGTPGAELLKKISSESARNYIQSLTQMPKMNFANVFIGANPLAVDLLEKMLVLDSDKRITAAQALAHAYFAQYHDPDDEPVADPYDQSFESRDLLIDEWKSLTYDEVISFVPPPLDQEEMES
Parameters: species or system Escherichia coli
Conditions: not given

SMILES	IC50
Nc1nc2c(ncn2COC(CO)CO)c(=O)[nH]1 [GANCICLOVIR]	Not Active
CC1=Nc2ccc(Cl)cc2S(=O)(=O)N1 [DIAZOXIDE]	Not Active
CC(C)(Oc1ccc(CCNC(=O)c2ccc(Cl)cc2)cc1)C(=O)O [BEZAFIBRATE]	Not Active
CC(C)n1c(/C=C/C(O)CC(O)CC(=O)O)c(-c2ccc(F)cc2)c2ccccc21 (stereo not given) [FLUVASTATIN]	Not Active
CCCCOC(=O)c1ccc(N)cc1 [BUTAMBEN]	Not Active

Molecular target: Protein kinase C alpha type (Homo sapiens, UniProt P17252)
Format: cell-based
Conditions: sf9

SMILES	IC50
Nc1nc2c(ncn2COC(CO)CO)c(=O)[nH]1 [GANCICLOVIR]	Not Active
CC1=Nc2ccc(Cl)cc2S(=O)(=O)N1 [DIAZOXIDE]	Not Active
CC(C)(Oc1ccc(CCNC(=O)c2ccc(Cl)cc2)cc1)C(=O)O [BEZAFIBRATE]	Not Active
CC(C)n1c(/C=C/C(O)CC(O)CC(=O)O)c(-c2ccc(F)cc2)c2ccccc21 (stereo not given) [FLUVASTATIN]	Not Active
CCCCOC(=O)c1ccc(N)cc1 [BUTAMBEN]	Not Active

— ChEMBL document CHEMBL1909046, “DrugMatrix in vitro pharmacology data”
